Source: ChEMBL document CHEMBL4765442, “Anti-Giardia Drug Discovery: Current Status and Gut Feelings” (J Med Chem, 2020)
Converted amounts (≈) assume the structure as drawn.

Assays:
[1] = test system: Giardia intestinalis; assay: Antigiardial activity against Giardia intestinalis IMSS:0696:1 incubated for 48 hrs followed by wash out by hemocytometric counting method; type: functional, organism-based; conditions: Giardia duodenalis, IMSS:0696:1, 48 h
[2] = test system: Giardia intestinalis; assay: Antigiardial activity against metronidazole-resistant Giardia duodenalis WB-M3; type: functional
[3] = test system: Giardia intestinalis; assay: Antigiardial activity against metronidazole-resistant Giardia duodenalis 106-2ID10; type: functional
[4] = test system: Giardia intestinalis; assay: Antigiardial activity against metronidazole-resistant Giardia duodenalis 713-M3; type: functional
[5] = test system: Giardia intestinalis; assay: Antigiardial activity against Giardia lamblia WB incubated for 48 hrs by haemocytometric counting method; type: functional; conditions: Giardia duodenalis, read-out: LD50 (the source's name)
[6] = test system: Giardia intestinalis; assay: Antigiardial activity against drug susceptible Giardia lamblia incubated for 48 hrs by haemocytometric counting method; type: functional; conditions: Giardia duodenalis, read-out: LD50 (the source's name)
[7] = test system: Giardia intestinalis; assay: Antigiardial activity against nitazoxanide resistant Giardia lamblia N1-INP incubated for 48 hrs by haemocytometric counting method; type: functional; conditions: Giardia duodenalis, read-out: LD50 (the source's name)
[8] = test system: Giardia intestinalis; assay: Antigiardial activity against Giardia lamblia P1 incubated for 48 hrs by haemocytometric counting method; type: functional, organism-based; conditions: Giardia duodenalis, P1, 48 h
[9] = test system: Giardia intestinalis; assay: Antigiardial activity against Giardia lamblia WB incubated for 48 hrs by microscopic method; type: functional, organism-based; conditions: Giardia duodenalis
[10] = test system: Giardia intestinalis; assay: Antigiardial activity against Giardia lamblia H/7 incubated for 48 hrs by microscopic method; type: functional, organism-based; conditions: Giardia duodenalis, H/7, 48 h
[11] = Half-life of the compound; type: physicochemical
[12] = test system: Giardia intestinalis; assay: Antigiardial activity against Giardia lamblia incubated for 48 hrs by ATPLite reagent based luminescence assay; type: functional, organism-based; conditions: Giardia duodenalis
[13] = test system: Giardia intestinalis; assay: Antigiardial activity against Giardia lamblia 713M3 trophozoites incubated for 3 days by microscopic method; type: functional, Giardia duodenalis; conditions: time 3 day
[14] = test system: Giardia intestinalis; assay: Antigiardial activity against Giardia lamblia GS/H7 trophozoites incubated for 3 days by microscopic method; type: functional, Giardia duodenalis; conditions: time 3 day
[15] = test system: Giardia intestinalis; assay: Antigiardial activity against Giardia duodenalis GS/M-83-H7 (ATCC 50581) incubated for 3 days by fluorescence method; type: functional, organism-based; conditions: 72 h
[16] = test system: Giardia intestinalis; assay: Antigiardial activity against Giardia duodenalis WB (ATCC 30957) incubated for 3 days by fluorescence method; type: functional, organism-based; conditions: WB ATCC 30957, 72 h
[17] = test system: Giardia intestinalis; assay: Antigiardial activity against Giardia duodenalis G1 incubated for 3 days by fluorescence method; type: functional, organism-based; conditions: G1, 72 h
[18] = test system: Giardia intestinalis; assay: Antigiardial activity against Giardia duodenalis Ah1 incubated for 3 days by fluorescence method; type: functional, organism-based; conditions: Ah1, 72 h
[19] = test system: Giardia intestinalis; assay: Antigiardial activity against Giardia duodenalis Ah2 incubated for 3 days by fluorescence method; type: functional, organism-based; conditions: Ah2, 72 h
[20] = test system: Giardia intestinalis; assay: Antigiardial activity against Giardia duodenalis Ac1 incubated for 3 days by fluorescence method; type: functional, organism-based; conditions: Ac1, 72 h
[21] = test system: Giardia intestinalis; assay: Antigiardial activity against Giardia duodenalis Ac2 incubated for 3 days by fluorescence method; type: functional, organism-based; conditions: Ac2, 72 h
[22] = test system: Giardia intestinalis; assay: Antigiardial activity against Giardia duodenalis Ec1 incubated for 3 days by fluorescence method; type: functional, organism-based; conditions: Ec1, 72 h
[23] = test system: Giardia intestinalis; assay: Antigiardial activity against Giardia duodenalis Ec2 incubated for 3 days by fluorescence method; type: functional, organism-based; conditions: Ec2, 72 h
[24] = test system: Giardia intestinalis; assay: Antigiardial activity against Giardia intestinalis WB ATCC 30957 incubated for 72 hrs by hemocytometric counting method; type: functional, organism-based; conditions: Giardia duodenalis, WB ATCC 30957, 72 h
[25] = test system: Giardia intestinalis; assay: Antigiardial activity against Giardia duodenalis WBC6 trophozoites incubated for 72 hrs under anaerobic condition by resazurin-dye based fluorimetry; type: functional, organism-based; conditions: WBC6, 72 h
[26] = test system: Giardia intestinalis; assay: Antigiardial activity against Giardia duodenalis WBC6 trophozoites incubated for 48 hrs under microaerophilic condition by methylene blue colorimetric assay; type: functional, organism-based; conditions: WBC6, 48 h
[27] = test system: Giardia intestinalis; assay: Antigiardial activity against Giardia intestinalis WB incubated for 48 hrs by hemocytometric counting method; type: functional, organism-based; conditions: Giardia duodenalis
[28] = test system: Giardia intestinalis; assay: Antigiardial activity against Giardia intestinalis N1-INP incubated for 48 hrs followed by hemocytometric counting method; type: functional, organism-based; conditions: Giardia duodenalis
[29] = test system: Giardia intestinalis; assay: Antigiardial activity against Giardia intestinalis WB30957 incubated for 48 hrs followed by hemocytometric counting method; type: functional, organism-based; conditions: Giardia duodenalis, WB30957, 48 h
[30] = test system: Giardia intestinalis; assay: Antigiardial activity against Giardia intestinalis IMSS-1090-1 incubated for 48 hrs followed by hemocytometric counting method; type: functional, organism-based; conditions: Giardia duodenalis, IMSS-1090-1, 48 h
[31] = test system: Giardia intestinalis; assay: Antigiardial activity against Giardia intestinalis UNAM-0688-2 incubated for 48 hrs followed by hemocytometric counting method; type: functional, organism-based; conditions: Giardia duodenalis, UNAM-0688-2, 48 h
[32] = test system: Giardia intestinalis; assay: Antigiardial activity against Giardia intestinalis BRIS/91/HEPU/1411 incubated for 48 hrs followed by compound wash out by hemocytometric counting method; type: functional, organism-based; conditions: Giardia duodenalis, BRIS/91/HEPU/1411, 48 h
[33] = test system: Giardia intestinalis; assay: Antimicrobial activity against Giardia lamblia BRIS/87/HEPU/713 trophozoites measured after 48 hrs by BacTiter-Glo cell viability assay; type: functional, organism-based; conditions: Giardia duodenalis, BRIS/87/HEPU/713, 48 h
[34] = Selectivity ratio of CC50 for human HeLa cells incubated for 2 days by alamarBlue reagent to IC50 for Giardia lamblia BRIS/87/HEPU/713 measured after 48 hrs by BacTiter-Glo cell viability assay; type: toxicity; conditions: read-out: Ratio CC50/IC50
[35] = test system: Giardia intestinalis; assay: Antimicrobial activity against Giardia lamblia BRIS/83/HEPU/106 trophozoites measured after 2 days by BacTiter-Glo cell viability assay; type: functional, organism-based; conditions: Giardia duodenalis, BRIS/83/HEPU/106, 48 h
[36] = test system: Giardia intestinalis; assay: Antimicrobial activity against Giardia lamblia 713M3 trophozoites measured after 2 days by BacTiter-Glo cell viability assay; type: functional, organism-based; conditions: Giardia duodenalis, 713M3, 48 h
[37] = test system: Giardia intestinalis; assay: Antimicrobial activity against Giardia lamblia WB-M2 trophozoites measured after 2 days by BacTiter-Glo cell viability assay; type: functional, organism-based; conditions: Giardia duodenalis, WB-M2, 48 h
[38] = Selectivity ratio of CC50 for human HeLa cells incubated for 2 days by alamarBlue reagent to IC50 for Giardia lamblia BRIS/83/HEPU/106 measured after 48 hrs by BacTiter-Glo cell viability assay; type: toxicity; conditions: read-out: Ratio CC50/IC50
[39] = Selectivity ratio of CC50 for human HeLa cells incubated for 2 days by alamarBlue reagent to IC50 for Giardia lamblia 713M3 measured after 48 hrs by BacTiter-Glo cell viability assay; type: toxicity; conditions: read-out: Ratio CC50/IC50
[40] = Selectivity ratio of CC50 for human HeLa cells incubated for 2 days by alamarBlue reagent to IC50 for Giardia lamblia WB-M2 measured after 48 hrs by BacTiter-Glo cell viability assay; type: toxicity; conditions: time 2 day, read-out: Ratio CC50/IC50
[41] = Selectivity ratio of EC50 for Giardia lamblia WB-M2 trophozoites to EC50 for Giardia lamblia BRIS/87/HEPU/713 trophozoites; type: functional
[42] = Selectivity ratio of EC50 for Giardia lamblia 713-M3 trophozoites to EC50 for Giardia lamblia BRIS/87/HEPU/713 trophozoites; type: functional

Cc1ncc([N+](=O)[O-])n1CC(C)OC(=O)Nc1ccccc1 (centres undefined)
IC50 [1]: 500 nM

Cc1ncc([N+](=O)[O-])n1CC(C)O (centres undefined) [SECNIDAZOLE]
IC50 [1]: 4100 nM

Cc1ccc(C(Br)C(Br)c2ncc([N+](=O)[O-])n2C)cc1 (centres undefined)
MIC [2]: 5 µM (≈ 2.02 µg/mL)
MIC [3]: 5 µM (≈ 2.02 µg/mL)
MIC [4]: 10 µM (≈ 4.03 µg/mL)

COc1ccc2[nH]c([S+]([O-])Cc3ncc(C)c(OC)c3C)nc2c1 (centres undefined) [OMEPRAZOLE]
LC50 [5]: 116 nM
LC50 [6]: 116 nM
LC50 [7]: 544 nM

Cc1ncc([N+](=O)[O-])n1CCOC(=O)Nc1ccc([N+](=O)[O-])cc1
IC50 [1]: 500 nM

COC(=O)Nc1nc2ccc(C(=O)c3ccccc3)cc2[nH]1 [MEBENDAZOLE]
IC50 [8]: 60 nM
IC50 [9]: 60 nM
IC50 [10]: 60 nM
half-life [11]: 2.5 h

Cc1ncc([N+](=O)[O-])n1CC(C)OC(=O)Nc1ccc(F)cc1 (centres undefined)
IC50 [1]: 500 nM

CCN(CC)C(=S)SSC(=S)N(CC)CC
IC50 [12]: 900 nM
MLC [13]: 0.8 µM (≈ 0.237 µg/mL)
MLC [14]: 1.5 µM (≈ 0.445 µg/mL)

Cc1ncc([N+](=O)[O-])n1CCOC(=O)Nc1ccccc1
IC50 [1]: 500 nM

CCCSc1ccc2nc(NC(=O)OC)[nH]c2c1 [ALBENDAZOLE]
IC50 [15]: 55 nM
IC50 [16]: 55 nM
IC50 [17]: 55 nM
IC50 [18]: 55 nM
IC50 [19]: 55 nM
IC50 [20]: 55 nM
IC50 [21]: 55 nM
IC50 [22]: 55 nM
IC50 [23]: 55 nM
half-life [11]: 8 h

O=C(/C=C/c1ccc([N+](=O)[O-])o1)N1CCN(c2ccnc3cc(Cl)ccc23)CC1
IC50 [24]: 145000 nM

Cc1ncc([N+](=O)[O-])n1CCN1CCN(c2ccnc3cc(Cl)ccc23)CC1
IC50 [24]: 970 nM

O=[N+]([O-])c1ccc(SCCCCCCO)c2nonc12
IC50 [25]: 600 nM
IC50 [26]: 300 nM

CSc1nc2cc(Cl)c(C(=O)Nc3ncc([N+](=O)[O-])s3)cc2n1C
IC50 [27]: 10 nM
IC50 [28]: 71 nM
IC50 [29]: 10 nM
IC50 [30]: 10 nM
IC50 [31]: 10 nM
IC50 [32]: 10 nM

CN(Cc1ccccc1)Cc1cn(CCCCCC(=O)Nc2ncc([N+](=O)[O-])s2)nn1
IC50 [33]: 100 nM
selectivity ratio at 48 h [34]: > 500
IC50 [35]: 100 nM
IC50 [36]: 100 nM
IC50 [37]: 6500 nM
selectivity ratio at 48 h [38]: > 8
selectivity ratio at 48 h [39]: > 8
selectivity ratio at 48 h [40]: > 8
Ratio EC50 [41]: 65
Ratio EC50 [42]: 20

Cc1ncc([N+](=O)[O-])n1CCOC(=O)Nc1ccc(Cl)cc1
IC50 [1]: 500 nM
